Values quoted from earlier work in patent US9446052B2, “Composition for prevention of nausea or vomiting” (SAMYANG BIOPHARMACEUTICALS CORPORATION, priority 2010, dated 2016).

Conditions: pH 6-7.5

Compound: Cc1nccn1CC1CCc2c(c3ccccc3n2C)C1=O (stereo not shown) [ondansetron]
- Solubility in water: not soluble
